Measurements published in the supplement of paper PMC10307832.

Experiments:
Assay in all cases: relative viability (nuclei count vs DMSO), 5 days (fraction); higher = more cells survive
[1] = compound: COC1=CC=C(C=C1)CN2C=CC3=C2C=C(C=C3)C(=O)NO + Nc1ncn([C@H]2C[C@H](O)[C@@H](CO)O2)c(=O)n1 [Decitabine] (partner 2 µM)
Outline: (§1)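 Dosing by pin tool came one day after lung cancer cell lines were seeded in 1536-well plates, using either one drug or a fixed anchor-drug dose plus five library-drug doses (not always all listed) in √10 steps. After 5 days, nuclei were counted on 4× images. Relative viability is treated-well nuclei count divided by vehicle-well nuclei count, and values are medians of duplicate plates.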

[2] = compound: COC1=CC=C(C=C1)CN2C=CC3=C2C=C(C=C3)C(=O)NO + O=C(CCCCCCC(=O)Nc1ccccc1)NO [Vorinostat] (partner 1 µM)
Outline: as §1

Veliparib + Lapatinib = compound: C[C@]1(c2nc3c(C(N)=O)cccc3[nH]2)CCCN1 [Veliparib] + CS(=O)(=O)CCNCc1ccc(-c2ccc3ncnc(Nc4ccc(OCc5cccc(F)c5)c(Cl)c4)c3c2)o1 [Lapatinib] (partner 2 µM)
Outline: as §1

Veliparib + Alpelisib = compound: C[C@]1(c2nc3c(C(N)=O)cccc3[nH]2)CCCN1 [Veliparib] + Cc1nc(NC(=O)N2CCC[C@H]2C(N)=O)sc1-c1ccnc(C(C)(C)C(F)(F)F)c1 [Alpelisib] (partner 2 µM)
Outline: as §1

Cell Line	relative viability ([1]; first compound 0.08 µM)	relative viability ([1]; first compound 0.253 µM)	relative viability ([1]; first compound 0.8 µM)	relative viability ([1]; first compound 2.53 µM)	relative viability ([1]; first compound 8 µM)	relative viability ([2]; first compound 0.08 µM)	relative viability ([2]; first compound 0.253 µM)	relative viability ([2]; first compound 0.8 µM)	relative viability ([2]; first compound 2.53 µM)	relative viability ([2]; first compound 8 µM)	relative viability (Veliparib + Lapatinib; first compound 0.02 µM)	relative viability (Veliparib + Lapatinib; first compound 0.06325 µM)	relative viability (Veliparib + Lapatinib; first compound 0.2 µM)	relative viability (Veliparib + Lapatinib; first compound 0.6325 µM)	relative viability (Veliparib + Lapatinib; first compound 2 µM)	relative viability (Veliparib + Alpelisib; first compound 0.02 µM)	relative viability (Veliparib + Alpelisib; first compound 0.06325 µM)	relative viability (Veliparib + Alpelisib; first compound 0.2 µM)	relative viability (Veliparib + Alpelisib; first compound 0.6325 µM)	relative viability (Veliparib + Alpelisib; first compound 2 µM)
NCI-H23	0.291	0.325	0.377	0.301	0.296	0.338	0.649	0.637	0.584	0.461	1.19	0.995	0.84	0.873	1.01	0.662	0.623	0.749	0.564	0.713
NCI-H322M			0.716	0.66	0.69			0.866	0.888	0.845	0.722	0.602	0.629	0.61	0.471	0.763	0.719	0.78	0.7	0.772
NCI-H358		0.221	0.292	0.197	0.179		0.721	0.703	0.606	0.528		0.464	0.503	0.393	0.452		0.763	0.953	0.775	1.01
NCI-H460	0.457	0.461	0.468	0.432	0.43	0.508	0.736	0.758	0.783	0.57		0.866	0.909	0.904	1.01		0.342	0.539	0.347	0.441
NCI-H520	0.517	0.481	0.484	0.495	0.551	0.601	0.775	0.682	0.664	0.712	0.986	0.859	0.912	0.733	0.858	0.882	1.06	0.859	0.791	1.03
NCI-H596	1.04	1.78	1.15	0.922	1	0.587	0.536	0.589	0.708	0.778	1.14	0.902	1.01	1.19	1.01	0.516	0.497	0.541	0.472	0.526
NCI-H647	0.509	0.401	0.434	0.426	0.405	0.457	0.738	0.802	0.702	0.515	1.24	0.986	0.973	1	1.16	1.38	1.07	1.42	1.22	1.11
NCI-H650	0.298	0.306	0.359	0.3	0.296	0.337	0.414	0.437	0.477	0.34	0.82	0.827	0.816	0.932	0.501	1.28	0.983	1.23	0.999	1.2
NCI-H661		0.591	0.61	0.519	0.44		0.807	0.717	0.747	0.639	0.413	0.483	0.56	0.447	0.533	0.361	0.581	0.653	0.701	0.699
NCI-H727	0.813	0.866	0.792	0.705	0.909	1.13	1.17	1.22	1.25	1.25	0.388	0.759	0.9	0.876	0.734	0.512	0.572	0.598	0.538	0.488
NCI-H838	0.441	0.455	0.476	0.456	0.505	0.285	0.614	0.75	0.771	0.737	1.12	0.842	0.902	0.847	0.979	0.971	0.843	1.08	0.935	1
NCI-H1355	0.326	0.357	0.347	0.403	0.311	0.223	0.695	0.65	0.625	0.589		0.882	0.999	0.939	0.968		0.739	0.846	0.692	0.816
NCI-H1395		0.701	0.758	0.842	0.618		0.634	0.816	0.84	0.574		0.76	0.874	0.716	0.83		1.37	0.873	1.09	0.74
NCI-H1437	0.558	0.608	0.547	0.576	0.606	0.684	0.766	0.881	0.891	1.01	0.519	0.794	0.72	0.78	0.759	0.898	0.977	0.98	0.921	0.889
NCI-H1651	0.584	0.52	0.616	0.566	0.579	0.52	0.512	0.498	0.464	0.475	0.557	0.755	0.92	0.835	0.775	0.889	0.83	0.922	0.828	0.856
NCI-H1666	0.639	0.797	0.81	0.659	0.723	0.945	1.09	1.01	1.09	1.04	0.606	0.348	0.675	0.744	0.662	1.04	0.709	0.857	0.829	1
NCI-H1734		0.507	0.527	0.534	0.48		0.882	0.779	0.731	0.658	1.16	0.982	0.933	0.981	1.12	0.734	0.569	0.705	0.667	0.744

Cell Line	relative viability ([1]; first compound 0.08 µM)	relative viability ([1]; first compound 0.253 µM)	relative viability ([1]; first compound 0.8 µM)	relative viability ([1]; first compound 2.53 µM)	relative viability ([1]; first compound 8 µM)	relative viability ([2]; first compound 0.08 µM)	relative viability ([2]; first compound 0.253 µM)	relative viability ([2]; first compound 0.8 µM)	relative viability ([2]; first compound 2.53 µM)	relative viability ([2]; first compound 8 µM)	relative viability (Veliparib + Lapatinib; first compound 0.02 µM)	relative viability (Veliparib + Lapatinib; first compound 0.06325 µM)	relative viability (Veliparib + Lapatinib; first compound 0.2 µM)	relative viability (Veliparib + Lapatinib; first compound 0.6325 µM)	relative viability (Veliparib + Lapatinib; first compound 2 µM)	relative viability (Veliparib + Alpelisib; first compound 0.02 µM)	relative viability (Veliparib + Alpelisib; first compound 0.06325 µM)	relative viability (Veliparib + Alpelisib; first compound 0.2 µM)	relative viability (Veliparib + Alpelisib; first compound 0.6325 µM)	relative viability (Veliparib + Alpelisib; first compound 2 µM)
NCI-H1755	0.632	0.737	0.64	0.743	0.683	0.694	0.884	0.777	0.876	0.725	1.02	1	1.01	0.99	0.989	0.898	0.939	0.942	0.881	0.922
NCI-H1793		0.678	0.592	0.662	0.286		0.832	0.801	0.816	0.759	0.548	0.555	0.788	0.572	0.762	0.819	0.582	0.755	0.661	0.69
NCI-H1915	0.239	0.284	0.259	0.275	0.262	0.326	0.49	0.48	0.514	0.492	0.96	0.897	0.756	0.872	0.885	1.03	1.02	0.976	0.898	0.926
NCI-H1944		0.431	0.384	0.456	0.406		0.677	0.577	0.603	0.399	0.825	0.748	0.627	0.72	0.767	0.792	0.849	0.752	0.818	0.756
NCI-H1975	0.349	0.364	0.443	0.456	0.388	0.676	0.779	0.752	0.74	0.701	0.843	0.765	0.831	0.873	0.911	0.64	0.657	0.685	0.605	0.632
NCI-H1993	0.602	0.599	0.526	0.675	0.613	0.527	1.21	0.901	0.842	0.73	0.794	0.759	0.823	0.851	0.85	0.655	0.615	0.726	0.639	0.75
NCI-H2009	0.331	0.352	0.37	0.36	0.365	0.498	0.751	0.722	0.75	0.708	0.748	0.903	0.909	0.815	1.03	1.19	0.994	1.17	1.15	1.23
NCI-H2023	0.201	0.234	0.272	0.244	0.173	0.256	0.631	0.619	0.647	0.654	0.428	0.759	0.743	0.745	0.862	0.629	0.621	0.569	0.502	0.669
NCI-H2085	0.561	0.571	0.639	0.593	0.549	0.835	0.828	0.828	0.828	0.807	0.473	0.684	0.677	0.782	0.637	1.07	0.977	0.843	0.875	0.966
NCI-H2087	0.25	0.295	0.288	0.319	0.192	0.276	0.649	1.26	0.809	0.663	0.548	1.02	0.913	0.854	1.32	1.05	1.02	1.09	1.07	1.04
NCI-H2126	0.574	0.535	0.578	0.585	0.621	0.79	0.815	0.812	0.807	0.702	0.797	0.687	0.726	0.775	0.729	0.76	0.745	0.725	0.655	0.739
NCI-H2170	0.494	0.514	0.459	0.455	0.43	0.76	0.958	0.799	0.787	0.713	0.259	0.245	0.268	0.299	0.285	0.826	0.806	0.931	0.786	0.764
NCI-H2347	0.612	0.691	0.681	0.61	0.577	0.502	0.611	0.736	0.796	0.559	0.962	0.917	0.897	1.01	0.944	1.01	0.946	1.01	0.957	1.02
NCI-H2405	0.516		0.791	0.752	0.66	0.782		0.984	1.03	0.896		0.941	1.09	1.14	1.26		0.776	0.808	0.769	0.817
NCI-H3122	0.467	0.479	0.484	0.468	0.386	0.752	1.08	1.01	1.17	0.982	0.931	1.05	0.995	0.994	1.07	0.785	0.755	0.768	0.76	0.752
PC-3 [JPC-3]	0.764		0.775	0.833	0.832	0.786		0.668	0.756	0.587	0.422	0.397	0.454	0.476	0.477	1.1	0.981	0.959	1.03	0.993
PC-14	0.212	0.259	0.198	0.223	0.244	0.21	0.667	0.725	0.733	0.782	0.279	0.367	0.323	0.28	0.315	0.923	0.862	0.796	0.886	0.893
